Data reported in patent EP0429522B1, “PHOSPHOSUGAR-BASED ANTI-INFLAMMATORY AND/OR IMMUNOSUPPRESSIVE DRUGS” (THE AUSTRALIAN NATIONAL UNIVERSITY, priority 1988, dated 1990).

Legend:
[1] = tested on: Adoptively Transferred EAE; experiment: Inhibition of adoptively transferred EAE (clinical signs), phosphosugar delivered by subcutaneous mini-osmotic pumps; type: in vivo, Lewis rats; settings: for Disease Severity (%Control): product of mean clinical score and mean length disease; for inhibition of EAE (result in words): summary of Tables I, III and IV
Protocol: In this Example, a number of phosphosugars and one phospho-polysaccharide were tested for their ability to inhibit development of EAE in rats. (All phosphosugars tested are commercially available and were obtained from Sigma Chemical Co., St. Louis, MO, U.S.A.). Experimental details are included in the footnotes to the Tables setting out the test results.
Thus, although 7/10 animals treated with mannose-6-phosphate developed some clinical signs of disease (Table III) the severity of these disease symptoms was extremely mild compared with untreated animals, i.e., <10% disease severity of controls when clinical scores and duration of disease are examined. In this sense, the mannose-6-phosphate data in Tables I and III are almost identical. […]
In these experiments, details of which were as in Table I, the number of cells transferred was 25x10⁶/rat, while the dose of compound administered was 10mg/rat delivered over a 7 day period by mini-osmotic pumps, commencing on day 3 after cell transfer.

[2] = tested on: EAE; experiment: Histological analysis of spinal cord inflammatory lesions in EAE rats; type: in vivo; settings: for No.Lesions: lower thoracic-upper lumbar spinal cord sections, treated as in Table I; for No.Lesions / Lesions/section: 9 days after cell transfer; for Lesions/section: spinal cord sections
Description: Such data are consistent with the view that the sugars are inhibiting entry of leukocytes into the CNS.

[3] = tested on: Passive Adjuvant Arthritis; experiment: Suppression of passive adjuvant arthritis (foot size); type: in vivo, (DA x Lew)Fl rats; settings: 6mg/rat/day by miniosmotic pumps for 14 days
Protocol: (DA x Lew)Fl rats were immunized with M.butyricum in light mineral oil given in each foot. Ten days later spleens were removed and incubated as single cell suspension tissue culture medium in + 5µg/ml ConA for 75 hrs. Cells were harvested, washed and transferred i.v. at 65 x 10⁶ cells/rat into (DA x Lew)F recipients.
Treated rats were implanted on the day they received cells with miniosmotic pumps which delivered 6mg/rat/day of mannose-6- phosphate for 14 days. Control rats were sham operated. The results are shown in Table VII as % of pre-cell injection foot size. {Average for group; n=4 (mannose-6-phosphate); n=6 (control)}.

[4] = tested on: Delayed-Type Hypersensitivity (DTH); experiment: Delayed-type hypersensitivity (DTH) footpad swelling after sheep red blood cell challenge; type: in vivo, C57Bl mice; settings: 24 hours after challenge; 0.15mg i/p per injection, 7 injections at approx. 3½ hour intervals
Protocol: C57Bl mice were sensitised by i.v. injection 10⁵ of washed sheep red blood cells. 5 days later they were challenged in the right hind footpad with SRBC. Each mouse was given a 0.25ml injection i/p at the same time of either saline, mannose-6-phosphate or the 1,2,3,4-tetraacetate of mannose-6-phosphate and all injections were repeated a further 6 times at approx. 3½ hour intervals. The dose in each injection of mannose-6- phosphate was 0.15mg and of 1,2,3,4-tetra-O-acetyl derivative of mannose-6-phosphate was also 0.15mg. At 24 hours after challenge the DTH swelling was measured.

[5] = Table III, experimental details as in Table I
[6] = Table II, dose 10 mg over 7 days
[7] = Table II, dose 20 mg over 7 days
[8] = Table II, dose 40 mg over 7 days

Compound: OC[C@H]1OC(O)[C@@H](O)[C@@H](O)[C@@H]1O (stereo partly drawn) [D-mannose, reference compound]
- Mean Clinical Score [1, 5]: 2.9
- Mean Day Onset [1, 5]: 5.2
- Mean Length Disease [1, 5]: 4.4 days
- No.with EAE/Total [1, 5]: 5/5
- Disease Severity (%Control) ([1]; Table III): 84.5%
- inhibition of EAE (result in words) [1]: little or no effect on disease progression

Compound: O=P(O)(O)OC[C@H]1OC(O)[C@H](O)[C@@H](O)[C@H]1O (some centres unmarked) [Galactose-6-phosphate, galactose-6-phosphate]
- Mean Clinical Score [1, 5]: 2.0
- Mean Day Onset [1, 5]: 5.2
- Mean Length Disease [1, 5]: 3.0 days
- No.with EAE/Total [1, 5]: 5/5
- Disease Severity (%Control) ([1]; Table III): 40.5%
- inhibition of EAE (result in words) [1]: partially inhibitory

Compound: O=C(COP(=O)(O)O)[C@@H](O)[C@H](O)[C@H](O)COP(=O)(O)O [Fructose-1,6-diphosphate, fructose-1,6-diphosphate]
- Mean Clinical Score [1, 5]: 2.4
- Mean Day Onset [1, 5]: 5.4
- Mean Length Disease [1, 5]: 3.4 days
- No.with EAE/Total [1, 5]: 5/5
- Disease Severity (%Control) ([1]; Table III): 54.0%
- inhibition of EAE (result in words) [1]: partially inhibitory

Compound: O=P(O)(O)OC[C@H]1OC(O)[C@@H](O)[C@@H](O)[C@@H]1O (some centres unmarked) [Mannose-6-phosphate, mannose-6-phosphate]
- Mean Length Disease ([1]; Table I, 40 mg/rat over 7 days): 0 days
- Mean Day Onset ([1]; Table I, 40 mg/rat over 7 days, s.c. pumps from day 3): 0
- Mean Clinical Score ([1]; Table I, 40 mg/rat over 7 days, score 0-5): 0
- No.with EAE/Total ([1]; Table I, 30 x 10⁶ ConA activated EAE effector cells, 40 mg/rat over 7 days, s.c. pumps from day 3): 0/8
- Mean Clinical Score [1, 6]: 1.8
- Mean Day Onset [1, 6]: 5.0
- Mean Length Disease [1, 6]: 3.3
- No.with EAE/Total [1, 6]: 4/4
- Disease Severity (%Control) ([1]; Table II, dose 10 mg over 7 days, listed as Mannose-6-Phosphate): 37.7%
- Disease Severity (%Control) ([1]; Table II, dose 10 mg over 7 days, listed as mannose-6-phosphate): 37.7%
- Mean Clinical Score [1, 7]: 1.5
- Mean Day Onset [1, 7]: 5.0
- Mean Length Disease [1, 7]: 3.0
- No.with EAE/Total [1, 7]: 4/4
- Disease Severity (%Control) [1, 7]: 28.6%
- Mean Clinical Score [1, 8]: 0.3
- Mean Day Onset [1, 8]: 5.0
- Mean Length Disease [1, 8]: 0.7
- No.with EAE/Total [1, 8]: 1/3
- Disease Severity (%Control) [1, 8]: 1.7%
- Mean Clinical Score [1, 5]: 0.9
- Mean Day Onset [1, 5]: 6.0
- Mean Length Disease [1, 5]: 1.5 days
- No.with EAE/Total [1, 5]: 7/10
- Disease Severity (%Control) ([1]; Table III): 8.9%
- Disease Severity (%Control) ([1]; Table III, listed as mannose-6-phosphate): < 10%
- inhibition of EAE (result in words) [1]: totally inhibited development of disease
- CNS lesions (result in words) ([2]; text summary of Table V): No lesions were detected
- No.Lesions ([2]; treated rat 1): 0
- Lesions/section ([2]; treated rat 1): 0
- No.Lesions ([2]; treated rat 2): 0
- Lesions/section ([2]; treated rat 2): 0
- % of pre-cell injection foot size ([3]; Day 4, group average n=4): 97.3%
- % of pre-cell injection foot size ([3]; Day 6, n=4): 105.8%
- % of pre-cell injection foot size ([3]; Day 7, n=4): 102.8%
- % of pre-cell injection foot size ([3]; Day 9, n=4): 108.4%
- % of pre-cell injection foot size ([3]; Day 11, n=4): 107.6%
- % of pre-cell injection foot size ([3]; Day 14, n=4): 117.4%
- reduction of DTH swelling as compared with the saline controls [4]: 52.5%

Compound: Glucose-1-phosphate
- Mean Clinical Score [1, 5]: 3.0
- Mean Day Onset [1, 5]: 5.2
- Mean Length Disease [1, 5]: 3.8 days
- No.with EAE/Total [1, 5]: 5/5
- Disease Severity (%Control) ([1]; Table III): 75.5%
- inhibition of EAE (result in words) [1]: little or no effect on disease progression

Compound: 6-phospho-mannose-α(1-3)-{mannose-α-(1-3)}₂-mannose-α-(1-2)-mannose [Pentasaccharide]
- EAE/Total ([1]; Table VI, 25x10⁶ cells/rat, 10mg/rat over 7 days by mini-osmotic pumps from day 3): 1/5

Compound: O=C(COP(=O)(O)O)[C@@H](O)[C@H](O)[C@H](O)CO [Fructose-1-phosphate, fructose-1-phosphate]
- Mean Clinical Score [1, 5]: 1.2
- Mean Day Onset [1, 5]: 5.5
- Mean Length Disease [1, 5]: 1.6 days
- No.with EAE/Total [1, 5]: 3/5
- Disease Severity (%Control) ([1]; Table III): 12.6%
- inhibition of EAE (result in words) [1]: as effective as mannose-6-phosphate at inhibiting disease

Compound: O=C(CO)[C@@H](O)[C@H](O)[C@H](O)COP(=O)(O)O [Fructose-6-phosphate]
- Mean Clinical Score [1, 5]: 1.6
- Mean Day Onset [1, 5]: 6.0
- Mean Length Disease [1, 5]: 2.4 days
- No.with EAE/Total [1, 5]: 4/5
- Disease Severity (%Control) ([1]; Table III): 25.4%
- inhibition of EAE (result in words) [1]: comparatively effective inhibitor of EAE

Compound: 1,2,3,4-tetra-O-acetyl derivative of mannose-6-phosphate
- reduction of DTH swelling as compared with the saline controls [4]: 91.5%

Compound: O=P(O)(O)OC[C@H]1OC(O)[C@H](O)[C@@H](O)[C@@H]1O (some centres unmarked) [Glucose-6-phosphate, glucose-6-phosphate]
- Mean Clinical Score [1, 5]: 2.0
- Mean Day Onset [1, 5]: 5.4
- Mean Length Disease [1, 5]: 3.8 days
- No.with EAE/Total [1, 5]: 5/5
- Disease Severity (%Control) ([1]; Table III): 50.3%
- inhibition of EAE (result in words) [1]: partially inhibitory
